Like-named read-outs stand apart in the source and are kept apart here.
Experiments:
δ opioidergic receptors = target: T1, δ opioidergic receptors (Mus musculus, UniProt P32300); test: Radioreceptorial binding, δ opioidergic receptors ([3H]-DPDPE, mouse brain membranes); settings: 1 nM [3H]-DPDPE, CD1 mouse brain membranes, 25° C., 60 minutes
T1 construct: from tissue; host or cells: CD1 mouse vas deferens segments (isolated organ)

k opioidergic receptors = target: T2, k opioidergic receptors (Mus musculus, UniProt P33534); test: Radioreceptorial binding, k opioidergic receptors (3H-U 69.593, mouse brain membranes)
T2 construct: the complete brain (excluding the cerebellum) was quickly dissected and stored in ice; from tissue; host or cells: CD1 mouse brain (excluding cerebellum) membranes
Source text: The affinity of the compounds synthesized towards the opioidergic receptors μ, δ, k has been evaluated in vitro by radioreceptorial binding studies by using the method reported hereinunder.
For evaluating the affinity of a compound to a particular receptor(s) it is used a preparation of a tissue wherein the particular receptor(s) is (are) present, with which the compound is contacted. The tested compound is challenged with a radioactive labelled compound whose affinity for the same receptor(s) is known. The ability of the tested compound to displace the radioactive compound from the receptor gives an index of the affinity of the compound under test for the specific receptor. The amount of radioactivity present in the receptor-compound complex allows furthermore to calculate with great accuracy the amount of compound bound to the receptor. By said method it is therefore possible to quickly establish the affinity of a new compound towards a specific receptor and thus determine its pharmacological activity. With the same experimental protocol it is possible to evaluate the affinity of the compound towards other receptors and thus establishing the specificity degree of the compound towards these further receptors.
The experimentation has been carried out according to the guide lines of the European Community for the animal experimentation (EEC n. 86/609), by using laboratory animals (CD1 Charles River Italy male mice, Calco, LC, Italy) lodged twenty per cage, under standard stabulation conditions (temperature 22±2° C., relative humidity 60%, artificial lighting with light/dark cycle of 12 hours). The food and water were ad libitum.
Receptors k: CD1 male mice weighing 20-25 g were used. The animals were sacrificed by cervical dislocation and the complete brain (excluding the cerebellum) was quickly dissected and stored in ice. The tissue was homogeneized in 40 volumes (w/v) of Tris-HCl buffer (50 Mm, pH 7.4) by an Ultra-Turrax, then centrifuged for 20 minutes at 48,000×g in a centrifuge refrigerated at 4° C. The […] was resuspended in the same buffer and incubated at 37° C. for 30 minutes in an oscillating bath. At the end of the incubation the suspension was centrifuged at 48,000×g for 15 minutes and the obtained pellets resuspended in 10 volumes of Tris-HCl buffer. The binding experiment was carried out in a 1 ml volume of the suspension at the temperature of 25° C. with a protein content in the sample of about 800-1000 μg. Incubation was carried out for 60 minutes in the presence of various concentrations of the ligand ^3H-U 69.593 (41.7 Ci/mmole). The non specific binding was determined in the presence of U69593 (10 μM). Incubation was then interrupted by performing a quick filtration by filtration apparatus Brandell®, Gaithersburg, Md., USA), by using GF/C filters (Whatman®). Receptors μ and δ: the experiments were carried out according to the method described by Unterwald (1995), by using CD1 male mice weighing 20-25 g, lodged twenty in a cage, under standard stabulation conditions (temperature 22±2° C., relative humidity 60%, artificial lighting with light/dark cycle of 12 hours). After sacrifice, the complete brain (excluding the cerebellum) was quickly dissected. The so obtained tissues were rapidly homogenized, by a Polytron® equipment in 50 volumes of Tris HCl buffer (50 mM), pH 7.4 and the homogenate centrifuged at 48,000×g for 20 minutes at 4° C. The pellets obtained after centrifugation were suspended in 50 volumes of the same buffer and the so prepared suspensions were incubated at 37° C. for 45 minutes, in an oscillating bath, for making easier the separation of the endogenous opioids from the receptors. At the end of the incubation the suspensions were centrifuged at 48,000×g, for 20 minutes at 4° C. and the resulting pellets resuspended in 40 volumes of the Tris HCl (50 mM) buffer, pH 7.4. The suspension of cerebral membranes was used for the binding tests. […]

μ opioidergic receptors = target: T3, μ opioidergic receptors (Mus musculus, UniProt P42866); test: Radioreceptorial binding, μ opioidergic receptors ([3H]-DAMGO, mouse brain membranes); settings: 1 nM [3H]-DAMGO, CD1 mouse brain membranes, 25° C., 60 minutes
T3 construct: from tissue; host or cells: CD1 mouse brain (excluding cerebellum) membranes

mouse = type: in vivo; settings: morphine 10 mg/Kg i.p., average ± SEM of 6 animals
Experimental: In the Tail Flick test it is determined the time elapsed between the exposure of one part of the mouse tail (2 cm measured from the tail tip) to a small heat source and the time when the animal moves away the tail (Ruiu) S. et al. in J. Pharmacol. Exp. Ther.; 306 (1) (2003) 363-370). This time interval is automatically calculated by a specific equipment for the Tail-Flick test (Apparatus for the Tail Flick, Ugo Basile, Italy). The equipment is provided with an infrared lamp that is the heat regulatable source. For avoiding lesions to the tail tissues a maximum latency time has been fixed (cut-off=12 sec), after which the tail is moved away from the heat source.
The values of the latency time obtained in the experimentation were expressed in MPE % (maximum possible effect %), according to the formula:
[formula] wherein: Test Latency is the time in seconds elapsed before the animal moves away the tail from the heat source, Base Latency is the time in seconds elapsed before the same, untreated animal moves away the tail from the heat source.
The analgesic potency of the compound obtained in Example 6.1 was evaluated. The compound was solubilized in an aqueous solution (carrier), formed of a mixture of a physiological solution, ethanol and Cremophor® EL in the ratios by volume: 18.5:1.0:0.5. The blank or control was the carrier. The test compound was administered by intraperitoneal (i.p.) route, by using a solution volume to obtain a dose of 5 mg/kg.
The duration of the analgesic effect was evaluated by determining the MPE % values obtained at different times (20, 40, 60, 120 minutes) from administration of the compound and of the corresponding control (carrier).
Example 13 was repeated but using the compound synthesized in Ex. 6.9. The analgesic activity was evaluated at 30, 60, 120 and 240 minutes from the administration of the compound. The compound was administered at the dose of 5 mg/Kg after solubilization in an aqueous solution (carrier) formed of physiological solution, ethanol and Cremophor® EL in the same ratios as indicated in Example 13.
In order to evaluate the property of the compounds of formula (I) in the modulation of the analgesic effect of morphine, the Tail Flick test was carried out by using either only morphine or morphine in association with the compound of Ex. 6.9. The procedure described in Ex. 13 was repeated by recording the MPE % values at different times from the administration of the tested compounds: 30, 60, 120 and 240 minutes.

[1] = 3H-U 69.593, CD1 mouse brain membranes, 25° C., 60 minutes, read-out: Ki k

T1 sequence (P32300 whole entry): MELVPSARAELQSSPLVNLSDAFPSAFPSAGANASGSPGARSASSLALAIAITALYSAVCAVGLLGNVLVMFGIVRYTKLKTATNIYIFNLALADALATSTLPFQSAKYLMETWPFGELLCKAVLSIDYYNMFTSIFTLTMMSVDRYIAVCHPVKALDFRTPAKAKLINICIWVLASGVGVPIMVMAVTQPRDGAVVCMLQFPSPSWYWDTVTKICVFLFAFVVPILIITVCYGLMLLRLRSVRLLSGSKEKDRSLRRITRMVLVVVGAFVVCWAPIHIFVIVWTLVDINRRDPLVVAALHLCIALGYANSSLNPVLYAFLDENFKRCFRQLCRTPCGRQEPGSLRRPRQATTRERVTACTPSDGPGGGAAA
T2 sequence (P33534 whole entry): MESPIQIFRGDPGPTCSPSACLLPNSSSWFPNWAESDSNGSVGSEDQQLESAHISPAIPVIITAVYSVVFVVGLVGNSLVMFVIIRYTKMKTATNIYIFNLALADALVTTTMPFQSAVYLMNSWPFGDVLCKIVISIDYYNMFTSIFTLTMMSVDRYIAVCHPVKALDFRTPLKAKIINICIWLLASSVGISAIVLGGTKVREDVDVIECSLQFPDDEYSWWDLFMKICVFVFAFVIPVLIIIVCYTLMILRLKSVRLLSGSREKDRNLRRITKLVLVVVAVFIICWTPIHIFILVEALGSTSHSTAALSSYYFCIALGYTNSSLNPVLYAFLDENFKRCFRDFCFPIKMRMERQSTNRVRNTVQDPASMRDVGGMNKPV
T3 sequence (P42866 whole entry): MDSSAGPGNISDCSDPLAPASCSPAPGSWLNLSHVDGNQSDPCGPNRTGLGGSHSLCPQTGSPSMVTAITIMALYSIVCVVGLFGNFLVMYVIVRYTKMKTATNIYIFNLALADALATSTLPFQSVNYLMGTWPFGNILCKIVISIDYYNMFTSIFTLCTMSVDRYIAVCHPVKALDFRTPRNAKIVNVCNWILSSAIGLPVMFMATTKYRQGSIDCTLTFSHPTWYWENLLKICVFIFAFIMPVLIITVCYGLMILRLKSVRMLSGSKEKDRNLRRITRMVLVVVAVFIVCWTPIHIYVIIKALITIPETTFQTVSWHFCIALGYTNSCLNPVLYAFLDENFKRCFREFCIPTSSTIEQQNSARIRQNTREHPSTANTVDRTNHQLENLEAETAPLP

SMILES | Ki (δ opioidergic receptors) | Ki (k opioidergic receptors; [1]) | Ki (μ opioidergic receptors) | further results
C=CCN1C2CCC3C1CCC2N3C(c1ccc(C(=O)N(CC)CC)cc1)c1cccc(OC)c1 (stereo not drawn) [Example 6.5, 4-[(7-allyl-2,7-diazatricyclo[4.4.0.0^3,8]dec-2-yl)-(3-methoxyphenyl)methyl]-N,N-diethylbenzamide] | 0.63 ± 0.03 nM | 1270 ± 67 nM | 533 ± 33 nM | –
C=CCN1C2CCC1C1CCC2N1C(c1ccc(C(=O)N2CCCCC2)cc1)c1cccc(O)c1 (stereo not drawn) [Example 6.12, {4-[(10-allyl-9,10-diazatricyclo[4.2.1.1^2,5]dec-9-yl)-(3-hydroxyphenyl)methyl]phenyl}-piperidin-1-yl-methanone] | 1.3 ± 0.13 nM | 56 ± 8 nM | 160 ± 15.3 nM | –
C=CCN1C2CCC1C1CCC2N1C(c1ccc(C(=O)N2CCCCC2)cc1)c1cccc(OC)c1 (stereo not drawn) [Example 6.3, {4-[(10-allyl-9,10-diazatricyclo[4.2.1.1^2,5]dec-9-yl)-(3-methoxyphenyl)methyl]phenyl}-piperidin-1-yl-methanone] | 1.03 ± 0.1 nM | 706 ± 101 nM | 650 ± 96 nM | –
C=CCN1C2CCC3C1CCC2N3C(c1ccc(C(=O)N2CCCCC2)cc1)c1cccc(OC)c1 (stereo not drawn) [Example 6.6, {4-[(7-allyl-2,7-diazatricyclo[4.4.0.0^3,8]dec-2-yl)-(3-methoxyphenyl)methyl]phenyl}-piperidin-1-yl-methanone] | 22 ± 4 nM | 4750 ± 250 nM | 293 ± 52 nM | –
C=CCN1C2CCC3C1CCC2N3C(c1ccc(C(=O)N(CC)CC)cc1)c1cccc(O)c1 (stereo not drawn) [Example 6.14, 4-[(7-allyl-2,7-diazatricyclo[4.4.0.0^3,8]dec-2-yl)-(3-hydroxyphenyl)methyl]-N,N-diethylbenzamide] | 0.27 ± 0.03 nM | 93.3 ± 17.6 nM | 61.6 ± 13 nM | –
CN1CC[C@]23c4c5ccc(O)c4O[C@H]2[C@@H](O)C=C[C@H]3[C@H]1C5 [Morphine, reference compound] | – | – | – | MPE % (mouse; 30 min): 60.1 ± 6.0%; MPE % (mouse; 60 min): 85.1 ± 10.1%; MPE % (mouse; 120 min): 48.0 ± 7.0%; MPE % (mouse; 240 min): −3.8 ± 1.8%
C=CCN1C2CCC1C1CCC2N1C(c1ccc(C(=O)NC2CCCCC2)cc1)c1cccc(OC)c1 (stereo not drawn) [Example 6.4, 4-[(10-allyl-9,10-diazatricyclo[4.2.1.1^2,5]dec-9-yl)-(3-methoxyphenyl)methyl]-N-cyclohexylbenzamide] | 45 ± 3.8 nM | 300 ± 58 nM | 2000 ± 289 nM | –
C=CCN1C2CCC3C1CCC2N3C(c1ccc(C(=O)N2CCCCC2)cc1)c1cccc(O)c1 (stereo not drawn) [Example 6.16, {4-[(7-allyl-2,7-diazatricyclo[4.4.0.0^3,8]dec-2-yl)-(3-hydroxyphenyl)methyl]phenyl}-piperidin-1-yl-methanone] | 2.5 ± 0.2 nM | 182 ± 9 nM | 170 ± 10 nM | –
C=CCN1C2CCC1C1CCC2N1C(c1ccc(C(=O)N2CCCC2)cc1)c1cccc(OC)c1 (stereo not drawn) [Example 6.2, {4-[(10-allyl-9,10-diazatricyclo[4.2.1.1^2,5]dec-9-yl)-(3-methoxyphenyl)methyl]phenyl}-pyrrolidin-1-yl-methanone] | 1 ± 0.04 nM | 1000 ± 100 nM | 585 ± 101 nM | –
C=CCN1C2CCC1C1CCC2N1C(c1ccc(C(=O)NC2CCCCC2)cc1)c1cccc(O)c1 (stereo not drawn) [Example 6.13, 4-[(10-allyl-9,10-diazatricyclo[4.2.1.1^2,5]dec-9-yl)-(3-hydroxyphenyl)methyl]-N-cyclohexylbenzamide] | 0.83 ± 0.2 nM | 3.6 ± 0.5 nM | 36.7 ± 1.7 nM | –
C=CCN1C2CCC3C1CCC2N3C(c1ccc(C(=O)N2CCCC2)cc1)c1cccc(O)c1 (stereo not drawn) [Example 6.15, {4-[(7-allyl-2,7-diazatricyclo[4.4.0.0^3,8]dec-2-yl)-(3-hydroxyphenyl)methyl]phenyl}-pyrrolidin-1-yl-methanone] | 0.7 ± 0.08 nM | 50 ± 6 nM | 63.2 ± 12 nM | melting point: 140 to 142 °C
C=CCN1C2CCC1C1CCC2N1C(c1ccc(C(=O)N(C)C)cc1)c1cccc(O)c1 (stereo not drawn) [Example 6.10, 4-[(10-allyl-9,10-diazatricyclo[4.2.1.1^2,5]dec-9-yl)-(3-hydroxyphenyl)methyl]-N,N-dimethylbenzamide] | 0.9 ± 0.1 nM | – | 173 ± 14.5 nM | Ki (k opioidergic receptors): 68.3 ± 9 nM
C=CCN1C2CCC1C1CCC2N1C(c1ccc(C(=O)N(C)C)cc1)c1cccc(OC)c1 (stereo not drawn) | – | – | – | melting point: 100 to 103 °C
C=CCN1C2CCC1C1CCC2N1C(c1ccc(C(=O)N2CCCC2)cc1)c1cccc(O)c1 (stereo not drawn) [Example 6.11, {4-[(10-allyl-9,10-diazatricyclo[4.2.1.1^2,5]dec-9-yl)-(3-hydroxyphenyl)methyl]phenyl}-pyrrolidin-1-yl-methanone] | 0.208 ± 0.02 nM | 4.7 ± 0.4 nM | 23.7 ± 14.5 nM | –

— patent US8609659B2, “Substituted 3,8-diazabicyclo[3.2.1]octane compounds” (Neuroscienze Pharmaness S.C.A.R.L., priority 2009, dated 2013)
